These results are taken from patent US20240041028A1, “DELIVERY SYSTEM FOR PLANT PROTECTION” (Omya International AG, priority 2021, published 2024).

The test system of this experiment is Botrytis cinerea strain SAS 56. Kind of experiment: Efficacy of pyrimethanil tablets against Botrytis on tomato fruits. In kind it is in vivo. The settings on record: 6 days after inoculation (6 dpi); active applied one day prior to inoculation, 80 μl per hole. The text has this: • Tablets loaded with pyrimethanil (sample V3.3, 2.1 wt.-%, prepared according to Example 4) • Hydromagnesite tablets unloaded • Fungicide Espiro SC, commercially available from Omya Agro • Pure pyrimethanil powder, commercially available from Pluorochem Ltd • Five plastic trays with lids • Screwdriver • Eppendorf Pipette […] • Tomato fruits (calibration 47-57 mm) • Inoculum: Spore suspension of Botrytis cinerea strain SAS 56 (3×10^5 spores/ml), commercially available from DSMZ collection.
• Treatment 1: Untreated check. • Treatment 2: Tablets loaded with pyrimethanil (sample V3.3, 2.1 wt.-%, prepared according to Example 4) (0.03 gr active/tablet). • Treatment 3: Unloaded hydromagnesite tablet. • Treatment 4: Fungicide Espiro (appl. rate 0.125% (v/v based on the total amount of prepared treatment solution (solution amount: 50 ml, see below), resulting in pyrimethanil active 400 gr/1). • Treatment 5: Pure pyrimethanil active diluted in ethanol of 99% purity.
• Treatment 1: Only inoculum applied • Treatment 2: In 50 ml of water 1 tablet was dissolved. […]
Three days after the inoculation the first symptoms in the untreated check were detected. […]

For the molecule `Cc1cc(C)nc(Nc2ccccc2)n1` [Pyrimethanil], the “Botrytis spore germination / mycelium growth on tomato fruits” value is “no mycelium was produced”.
